The structures appear in SMILES notation.

Usually melting point stands for the temperature of the solid-liquid transition. The molecule `CC(O)C1(c2cccc(Cl)c2)CCN(C)CC1` (configuration not stated) displayed a melting point of 125 to 126 °C.

On to `C[C@H]1[C@H](Oc2cccc(C(F)(F)F)c2)CN1C(N)=O` (relative stereo), for which the melting point was 107 to 108 °C. The result for `CCN1CCC(CC(=O)NOC(C)(C)C)(S(=O)(=O)c2ccc(Oc3ccccc3)cc2)CC1` reads 152 to 155 °C; that for `C(=C\c1nc(COc2ccc(CCCn3ccnc3)cn2)co1)/c1ccccc1`, 120 to 121 °C. `COc1cnn(-c2cccc(COc3ccccc3)c2)c(=O)c1OC` displayed a melting point of 82 to 85 °C. In the case of `N#CN1CCC(=C2c3ccccc3CCc3ccncc32)CC1` it was 212 to 214 °C; in that of `CCOC(=O)C1=C(N2CCCC2)N=C(C)C(C(C)=O)C1c1cccc([N+](=O)[O-])c1` (configuration not stated), 130 °C; in that of `CC1(c2ccc(S(=O)(=O)Cl)cc2)Cc2cc(OCC(=O)O)c(Cl)c(Cl)c2C1=O` (configuration not stated), 209 to 210 °C. In the case of `CCN(CC)CCN(c1cc(OC)c(C)cc1[N+](=O)[O-])S(=O)(=O)c1ccc(C)cc1` it was 114 °C; in that of `Cc1nc2c(N)nc3ccccc3c2n1CCOC/C=C/c1ccccc1`, 112 °C. With `CC(=S)O/C=C\n1nnnc1C`, the melting point was 135 to 137 °C. In the case of `CC(C)(C)CC(NC(=O)c1ccc(C(F)(F)F)cc1)NC(=NS(=O)(=O)C(F)(F)F)Nc1cccnc1` (configuration not stated) it was 192 to 193 °C; in that of `COc1ccc(C(=O)c2sccc2OC)cc1`, 98 to 99 °C; in that of `CC(C)Oc1ccccc1-c1cc(=O)c2cc(C(=O)O)ccc2o1`, 133 to 135 °C.

For the molecule `O=C(O)CCn1cccc1Cn1ccnc1`, the melting point was in the range of 127 to 128 °C. The result for `CNC(=O)C(=NOC)c1cccc(Cl)c1COc1ccc(Sc2ccc(Cl)cc2)cn1` reads 116 to 118 °C; that for `NS(=O)(=O)c1ccc(Br)c(Br)c1`, 169 to 171 °C; that for `Cc1cc(N(C)Cc2ccc(-c3ccc(C(F)(F)F)cc3)nc2)ccc1OCC(=O)O`, 199 °C. In the case of `Cc1nnc(NC2CCCCC2)s1` it was 192 to 194 °C; in that of `COC(=O)Nc1cccc(C(=O)OC)c1NCc1ccc(-c2ccccc2C#N)cc1`, 113 to 115 °C; in that of `CCOCCOc1ccc(-c2ccc3c(c2)C=C(C(=O)Nc2ccc(CN(C)C4CCOCC4)cc2)CCS3(=O)=O)cc1F`, 212 to 214 °C. `CCOC(=O)c1cc2cc(-c3ccccc3)ccc2o1` displayed a melting point of 109 to 110 °C. The result for `COC(=O)N1CCc2onc(O)c2CC1` reads 127 to 128 °C. The result for `Clc1ccc(Cn2cc(CN3CCC(c4ccccc4)(c4ccccc4)CC3)nn2)cc1` reads 148 °C; that for `CN(C(=O)c1ccc2nonc2c1)C1CC=C(F)CC1` (configuration not stated), 117 to 118 °C; that for `CC(C)C1(C)N=C2c3nc4sccc4cc3C(=O)N2C1=O` (configuration not stated), 214 to 216 °C. In the case of `c1ccc(C(c2ccc3cccnc3c2)n2ccnc2)cc1` (configuration not stated) it was 111 °C. For `COc1ccc2c(c1)C(=O)N(CCN(C)CCN1C(=O)c3ccccc3C(C)(C)C1=O)C(=O)C2(C)C`, the melting point lay in the range of 155 to 156 °C.

`COc1ccc2c(Cc3c(Cl)cncc3Cl)nnc(-n3cncn3)c2c1` displayed a melting point of 207 to 208 °C. In the case of `O=C1Nc2cccnc2N(CCCCN2CCCCC2)c2ccccc21` it was 131 to 132 °C; in that of `CCOCC(=O)Nc1ncc(Cc2cc(OC)c(OC)c(OC)c2)c(N)n1`, 175 to 176 °C; in that of `c1cncc(CCNc2nc(-c3cccs3)ncc2-n2cccn2)c1`, 133 to 134 °C. In the case of `Cc1cc2c(cc1C)C(=O)C(CN1CCC3(CC1)C(=O)NCN3c1ccccc1)CC2` (configuration not stated) it was 182 to 183 °C. The result for `O=C(OCC=Cc1ccccc1)C(=C1NCCCS1)[N+](=O)[O-]` reads 115 to 116 °C; that for `CC(=O)N1CC(=O)N2CCc3ccccc3C2C1` (configuration not stated), 144 to 145 °C.

Take `COc1cccc(S(=O)(=O)N2c3cc(F)ccc3-c3ccc(F)cc3C2C)c1` (configuration not stated): the melting point was in the range of 147 to 149 °C. In the case of `O=C(Nc1ccc(Oc2ccnc(N3CCC4(CC3)OCCO4)n2)c2ccccc12)c1cc(F)cc(N2CCCCC2)c1` it was 195 to 196 °C; in that of `CC1(C)Cc2nc(C3CCCC3)c(C(=O)c3ccc(C(F)(F)F)cc3)c(-c3ccc(F)c(F)c3)c2C(O[Si](C)(C)C(C)(C)C)C1` (configuration not stated), 128 to 129 °C; in that of `CC(=O)c1ccc2c(c1)CCc1ccc(C(=O)O)cc1S2`, 230 to 232 °C. In the case of `c1ccc(-c2noc(-c3cccc4ccccc34)n2)nc1` it was 132 to 136 °C. The result for `CN(C)S(=O)(=O)n1c(C(=S)NC(=O)NS(=O)(=O)c2ccccc2Cl)nc2cc(Cl)c(Cl)cc21` reads 131 to 132 °C; that for `FC(F)c1cc(-c2cccc(C(F)(F)F)c2)nc2ccnn12`, 127 °C; that for `c1ccc2nc(COc3cccc4ccccc34)ccc2c1`, 99 to 101 °C. For the molecule `CCC1CC(=O)C2(C)CCC3c4ccc(OC)cc4CCC3C12` (configuration not stated), the melting point was in the range of 125 to 129 °C.

In turn, `Cc1cc2c(cc1CO)CCC(CCN1CCCC1)=C2` gave a melting point of 76 to 77 °C. In the case of `Cc1cc(C)cc(C(=O)c2ccc(O)c(CC(=O)O)c2)c1` it was 242 °C; in that of `Fc1cccc(/C=C/C2=CCN(Cc3c[nH]c4ncccc34)CC2)c1`, 199 to 201 °C.

In turn, `Nc1ccc(Sc2cccc3c2C(=O)c2cccc(Sc4ccc(N)cc4)c2C3=O)cc1` came in with a melting point of 364 to 365 °C. In the case of `COC(=O)C=C1SC(Nc2c(Cl)cccc2Cl)=NC1=O` it was 189 to 190 °C. The result for `O=[N+]([O-])c1ccc(-c2cccs2)cc1-c1cccs1` reads 111 to 112 °C; that for `O=C1[C@@H]2Cc3ccccc3CN2C(=O)N1c1cc(Cl)cc(Cl)c1`, 243 °C; that for `CCOC(=O)C1=C(CSSc2ccccc2)NC(C)=C(C(=O)OC)C1c1cccc([N+](=O)[O-])c1` (configuration not stated), 132 to 133 °C. The result for `CCC(=O)c1cc(Cl)ccc1NS(=O)(=O)C(F)(F)F` reads 54 to 55 °C; that for `Fc1cccc(CN2CCN=C2S)c1`, 186 to 188 °C; that for `CCCCCCC(C)(C)c1cc(OC)c(C2C(=O)[C@]3(C)CC[C@H]2C3(C)C)c(OC)c1` (some centres not stated), 64 to 65 °C. For the molecule `Brc1cccc2[nH]c(-c3ccccc3)c(CCN3CCCCC3)c12`, the melting point is more than 230 °C. The result for `CS(=O)(=O)Cc1cccc(-c2nc(=O)c3ccccc3s2)n1` reads 230 to 232 °C; that for `CCCNC(=O)c1cc(-c2ccc(OC)cc2)nn(CC2CC2)c1=O`, 101 to 102 °C; that for `CC(Cl)(Cl)CC(O)(Cn1cncn1)c1ccc(Cl)cc1` (configuration not stated), 106 °C. In the case of `COc1ccc(CN2CC=C(/C=C/c3ccccc3)CC2)cc1` it was 144 to 146 °C; in that of `CCCCc1nnc(-c2ccc([N+](=O)[O-])cc2)o1`, 68 to 70 °C; in that of `CC(C)(C)OC(=O)Cn1c(C(=O)O)cc2ccccc21`, 156 to 157 °C. In the case of `COc1cccc2c1C(=O)N(CC(=O)N1c3ccccc3N(Cc3ccccc3)C(=O)[C@H]3CCC[C@H]31)C2=O` (relative stereo) it was 247 to 248 °C; in that of `CCCCn1c(=O)n(CC=C(C)C)c(=O)c2c1ncn2S(=O)(=O)c1ccc(C)cc1`, 130 to 135 °C. Molecule `O=C(NS(=O)(=O)c1cccc([N+](=O)[O-])c1)c1ccccc1Cl` returned a melting point of 135 °C.

Regarding `COc1ccccc1NC(=O)Nc1ccc(N2CCN(C(=O)Nc3cc(OCCO)ccc3Cl)CC2)cc1`, the melting point lay within 179 to 180 °C. Molecule `Cc1ccc(-n2nc(OC(=O)c3ccccc3)c3c(c2=O)Cc2ccc(Cl)cc2N3)cc1` came in with a melting point of 248 to 250 °C.

As for `CSC(=NCCN1CCC(c2noc3cc(F)ccc23)CC1)NC#N`, the melting point fell in the range of 148 to 151 °C.

Molecule `CS(=O)(=O)c1ccc(-c2nn(CCCc3ccccc3)c(=O)cc2-c2ccc(Cl)cc2)cc1` registered a melting point of 70.2 to 71.6 °C. In the case of `CCOC(=O)Cn1c(=S)c2ccccc2n(Cc2ccc(Cl)cc2Cl)c1=O` it was 138 to 139 °C. In the case of `O=C(O)CCc1ccc(OCc2ccccc2)cc1` it was 123 to 124 °C; in that of `Nc1cc(Br)cc(OCCF)c1`, 48.5 to 50 °C; in that of `Cc1oc(-c2ccc3ccccc3c2)nc1COc1ccc(CCCCn2cncn2)cc1`, 134 to 135 °C. The result for `Cc1ccc(-c2cc(C(F)(F)F)nn2-c2ccc(S(=O)(=O)Cl)cc2)cc1` reads 97 to 98 °C; that for `CN1CCN(c2ccc(F)cc2C=C2CCCN(CCc3ccc(Cl)cc3)C2=O)CC1`, 88 to 90 °C; that for `CCOC(=O)c1sc2cc(OCc3cccnc3)ccc2c1S(=O)(=O)c1ccccc1`, 120 to 122 °C. In the case of `COC(=O)c1ccc2occ(-c3ccc(S(C)=O)cc3)c2c1` (configuration not stated), the melting point is 145 to 146 °C.

For `OC1c2ccccc2-c2[nH]nc(-c3ccccc3)c21` (configuration not stated), the melting point lay within 269 to 272 °C. In the case of `Cc1ccc(C)c(-c2cc(C#N)c(NC(=O)[C@@H]3C[C@@H]4CC[C@H]3C4)s2)c1` it was 168 to 169 °C; in that of `COc1cc(OCC(CO)CO)c(C=CC(=O)c2ccc(S(N)(=O)=O)cc2)cc1-c1cccs1`, 123 to 124 °C. The result for `C=CCc1nc(SC)nc2ccccc12` reads 133 to 135 °C; that for `CC(C)C[C@H](N)C(=O)N[C@@H](CC1CCCCC1)[C@@H](O)c1nccs1`, 140 to 141 °C. The result for `CCOC(=O)Nc1nc(=O)n(CC2CC2)cc1F` reads 90 to 92 °C; that for `CCCc1nc(C(=O)OC)c(C(=O)OC)n1Cc1ccc(-c2ccccc2-c2nnnn2C(c2ccccc2)(c2ccccc2)c2ccccc2)cc1`, 124 to 126 °C; that for `O=C(O)CCCCCCCCNS(=O)(=O)c1ccc(Cl)cc1`, 121 to 123 °C. The molecule `COc1ccc2ccc3c(c2c1)CC(NC(C)=O)CO3` (configuration not stated) gave a melting point of 186 °C. Molecule `O=C(c1ccc(F)cc1)C1CCN(CCCCn2c(=O)[nH]c3ccccc32)CC1` registered a melting point of 176 °C.

The values are drawn from a melting point compilation (Tetko et al.; mined from patent text by program, amines drawn as free bases though some values may be those of a salt).
